Several values for one entry are separate records, joined by “and”; a condition that tells them apart may be missing. Identical values can stand only once.
Columns and labels:
wild-type EGFR = wild-type EGFR (Homo sapiens, UniProt P00533); assay: EGFR kinase assay (ELISA); details: for A450: raw ELISA absorbance
PC-9 cells = assay: CCK-8 antiproliferation assay, PC-9; details: Homo sapiens, PC-9, 48 h, read-out: IC50 (μM) PC-9
H460 cells = assay: CCK-8 antiproliferation assay, H460; details: for Inhibitory efficacy: H460 cells
H1975 cells = assay: CCK-8 antiproliferation assay, H1975; details: for Inhibitory efficacy: H1975 cells
A549 cells = assay: CCK-8 antiproliferation assay, A549; details: for Inhibitory efficacy: A549 cells
Procedure: The compounds were dissolved in DMSO to make a 20 μM stock solution and diluted to the concentration of working solutions with complete growth medium before administration.
Cells were seeded in 96-well plates: 3,000–5,000 cells/well in 100 ul. One day after seeding, the test compounds at concentration between 1.0 and 16.0 μ M or 0.1% DMSO (as control) were added to cells in triplicate. 48 h later, CCK-8 was added and incubated the plate for 1–4 h in the incubator. The absorbance at 450 nm were measured using a microplate reader (Bio-Tek).

[1] = 2uM, given as fraction, Repeat 1-3
[2] = 4uM, given as fraction, Repeat 1-3
[3] = 8uM, given as fraction, Repeat 1-3
[4] = 16uM, given as fraction, Repeat 1-3
[5] = 1uM, given as fraction, Repeat 1-3

Sequence of wild-type EGFR (P00533 25-1210): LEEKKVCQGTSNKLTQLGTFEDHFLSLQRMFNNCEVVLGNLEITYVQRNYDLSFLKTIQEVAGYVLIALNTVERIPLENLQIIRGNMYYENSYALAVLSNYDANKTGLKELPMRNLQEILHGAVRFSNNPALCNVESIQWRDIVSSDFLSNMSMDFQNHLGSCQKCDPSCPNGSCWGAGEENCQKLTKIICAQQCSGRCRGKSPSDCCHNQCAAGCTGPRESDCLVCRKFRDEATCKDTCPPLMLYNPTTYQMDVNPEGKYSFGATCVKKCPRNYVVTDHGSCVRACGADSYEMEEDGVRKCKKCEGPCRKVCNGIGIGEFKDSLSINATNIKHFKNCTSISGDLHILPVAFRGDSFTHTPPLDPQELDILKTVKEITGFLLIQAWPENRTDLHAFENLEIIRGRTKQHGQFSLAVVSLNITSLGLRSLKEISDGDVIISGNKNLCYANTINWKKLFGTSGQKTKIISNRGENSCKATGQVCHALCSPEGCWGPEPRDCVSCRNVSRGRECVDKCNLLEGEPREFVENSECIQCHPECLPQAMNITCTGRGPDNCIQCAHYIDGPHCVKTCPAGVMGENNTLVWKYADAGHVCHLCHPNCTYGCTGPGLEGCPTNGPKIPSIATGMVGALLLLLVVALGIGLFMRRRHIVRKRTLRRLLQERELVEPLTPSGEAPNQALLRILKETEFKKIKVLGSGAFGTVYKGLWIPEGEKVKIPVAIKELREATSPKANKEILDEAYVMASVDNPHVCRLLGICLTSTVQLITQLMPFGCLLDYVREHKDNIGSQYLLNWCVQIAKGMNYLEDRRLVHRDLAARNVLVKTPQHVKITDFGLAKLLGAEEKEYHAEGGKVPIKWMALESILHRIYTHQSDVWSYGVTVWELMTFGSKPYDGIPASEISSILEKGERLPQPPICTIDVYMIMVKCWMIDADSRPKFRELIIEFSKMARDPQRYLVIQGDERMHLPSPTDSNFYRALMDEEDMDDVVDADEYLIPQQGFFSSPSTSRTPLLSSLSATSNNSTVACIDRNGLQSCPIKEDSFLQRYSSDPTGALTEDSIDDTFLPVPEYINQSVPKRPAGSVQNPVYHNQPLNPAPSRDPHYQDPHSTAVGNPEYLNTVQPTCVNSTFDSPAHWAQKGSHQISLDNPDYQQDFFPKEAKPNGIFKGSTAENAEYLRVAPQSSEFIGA

COCCOc1cc2ncnc(Nc3cccc(-c4cn(-c5ccc(OC)cc5OC)nn4)c3)c2cc1OCCOC [e17, [6,7-Bis-(2-methoxy-ethoxy)-quinazolin-4-yl]-{3-[1-(2,4-dimethoxy-phenyl)-1H-[1,2,3]triazol-4-yl]-phenyl}-amine]
IC50 (wild-type EGFR; IC50 (μM) EGFR, ELISA, 3 μmol/L ATP): 15.5 µM | inhibition at 30 pM (wild-type EGFR; concentration 0.03 nM, one value per replicate column): 13.7% | Inhibition (wild-type EGFR; concentration 0.03 nM, one value per replicate column, 3e-05 µM): 9.36 | inhibition at 0.0003 µM (wild-type EGFR; concentration 0.3 nM, one value per replicate column): 14.2% | Inhibition (wild-type EGFR; concentration 0.3 nM, one value per replicate column, 0.0003 µM): 12.4795 | inhibition at 0.003 µM (wild-type EGFR; concentration 3 nM, one value per replicate column): 14.4% | Inhibition (wild-type EGFR; concentration 3 nM, one value per replicate column, 0.003 µM): 19.0476 | inhibition at 0.03 µM (wild-type EGFR; concentration 30 nM, one value per replicate column): 18.2% | Inhibition (wild-type EGFR; concentration 30 nM, one value per replicate column, 0.03 µM): 26.7652 | inhibition at 0.3 µM (wild-type EGFR; concentration 300 nM, one value per replicate column): 32.9% | Inhibition (wild-type EGFR; concentration 300 nM, one value per replicate column, 0.3 µM): 32.1839 | inhibition at 3 µM (wild-type EGFR; concentration 3000 nM, one value per replicate column): 34.7% | Inhibition (wild-type EGFR; concentration 3000 nM, one value per replicate column, 3 µM): 34.8112 | inhibition at 30 µM (wild-type EGFR; concentration 30000 nM, one value per replicate column): 60.1% | Inhibition (wild-type EGFR; concentration 30000 nM, one value per replicate column, 30 µM): 58.1281 | A450 (wild-type EGFR; concentration 0.0001 nM): 0.831 and 0.824 | A450 (wild-type EGFR; concentration 0.03 nM): 0.745 and 0.767 | A450 (wild-type EGFR; concentration 0.3 nM): 0.742 and 0.748 | A450 (wild-type EGFR; concentration 3 nM): 0.741 and 0.708 | A450 (wild-type EGFR; concentration 30 nM): 0.717 and 0.661 | A450 (wild-type EGFR; concentration 300 nM): 0.625 and 0.628 | A450 (wild-type EGFR; concentration 3000 nM): 0.614 and 0.612 | A450 (wild-type EGFR; concentration 30000 nM): 0.455 and 0.47 | IC50 (PC-9 cells): > 100 µM | melting point: 85 to 88 °C | Inhibitory efficacy (H460 cells; [1]): 0.3561 and 0.3949 | Inhibitory efficacy (H460 cells; [2]): 0.5495 and 0.6263 | Inhibitory efficacy (H460 cells; [3]): 0.7733 and 0.7776 | Inhibitory efficacy (H460 cells; [4]): 0.8649 and 0.8113 | IC50 (H460 cells; Homo sapiens, NCI-H460, 48 h, read-out: IC50 (μM) H460, CCK-8, 48 h, average ± SD of three independent experiments): 3.18 ± 0.11 µM | inhibition at 2 µM (H460 cells; Homo sapiens, NCI-H460, read-out: Inhibitory efficacy, H460 cells, 2uM, given as fraction, Repeat 1-3): 29.5% | inhibition at 4 µM (H460 cells; Homo sapiens, NCI-H460, read-out: Inhibitory efficacy, H460 cells, 4uM, given as fraction, Repeat 1-3): 60.9% | inhibition at 8 µM (H460 cells; Homo sapiens, NCI-H460, read-out: Inhibitory efficacy, H460 cells, 8uM, given as fraction, Repeat 1-3): 77.7% | inhibition at 16 µM (H460 cells; Homo sapiens, NCI-H460, read-out: Inhibitory efficacy, H460 cells, 16uM, given as fraction, Repeat 1-3): 81.3% | Inhibitory efficacy (H1975 cells; [5]): 0.195 and 0.1523 | Inhibitory efficacy (H1975 cells; [1]): 0.402 and 0.2557 | Inhibitory efficacy (H1975 cells; [2]): 0.3137 and 0.2571 | Inhibitory efficacy (H1975 cells; [3]): 0.5 and 0.471 | Inhibitory efficacy (H1975 cells; [4]): 0.4476 and 0.4006 | IC50 (H1975 cells; Homo sapiens, NCI-H1975, 48 h, read-out: IC50 (μM) H1975, CCK-8, 48 h, average ± SD of three independent experiments): 18.3 ± 4.45 µM | inhibition at 1 µM (H1975 cells; Homo sapiens, NCI-H1975, read-out: Inhibitory efficacy, H1975 cells, 1uM, given as fraction, Repeat 1-3): 23.1% | inhibition at 2 µM (H1975 cells; Homo sapiens, NCI-H1975, read-out: Inhibitory efficacy, H1975 cells, 2uM, given as fraction, Repeat 1-3): 33.3% | inhibition at 4 µM (H1975 cells; Homo sapiens, NCI-H1975, read-out: Inhibitory efficacy, H1975 cells, 4uM, given as fraction, Repeat 1-3): 29% | inhibition at 8 µM (H1975 cells; Homo sapiens, NCI-H1975, read-out: Inhibitory efficacy, H1975 cells, 8uM, given as fraction, Repeat 1-3): 52.8% | inhibition at 16 µM (H1975 cells; Homo sapiens, NCI-H1975, read-out: Inhibitory efficacy, H1975 cells, 16uM, given as fraction, Repeat 1-3): 47.1% | Inhibitory efficacy (A549 cells; [5]): 0.282 and 0.1573 | Inhibitory efficacy (A549 cells; [1]): 0.4285 and 0.3755 | Inhibitory efficacy (A549 cells; [2]): 0.5452 and 0.5691 | Inhibitory efficacy (A549 cells; [3]): 0.5949 and 0.5372 | Inhibitory efficacy (A549 cells; [4]): 0.5916 and 0.6049 | IC50 (A549 cells; Homo sapiens, A549, 48 h, read-out: IC50 (μM) A549, CCK-8, 48 h, average ± SD of three independent experiments): 4.86 ± 0.6 µM | inhibition at 1 µM (A549 cells; Homo sapiens, A549, read-out: Inhibitory efficacy, A549 cells, 1uM, given as fraction, Repeat 1-3): 15.3% | inhibition at 2 µM (A549 cells; Homo sapiens, A549, read-out: Inhibitory efficacy, A549 cells, 2uM, given as fraction, Repeat 1-3): 40.1% | inhibition at 4 µM (A549 cells; Homo sapiens, A549, read-out: Inhibitory efficacy, A549 cells, 4uM, given as fraction, Repeat 1-3): 55.6% | inhibition at 8 µM (A549 cells; Homo sapiens, A549, read-out: Inhibitory efficacy, A549 cells, 8uM, given as fraction, Repeat 1-3): 58.9% | inhibition at 16 µM (A549 cells; Homo sapiens, A549, read-out: Inhibitory efficacy, A549 cells, 16uM, given as fraction, Repeat 1-3): 65%

Reference: paper PMC8776995 (Frontiers in Chemistry, 2022)
